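Five concentrations, 48 hours, 96-well plates. GI50 is the concentration that inhibits growth by half. TGI marks complete inhibition of growth.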
Key:
Assay in all cases: NCI anticancer screen, dose series, 48 h
[1] = tested on: A498 renal
[2] = tested on: SK-MEL-28 melanoma
[3] = tested on: NCI-H23 lung
[4] = tested on: CAKI-1 renal
[5] = tested on: SK-MEL-2 melanoma
[6] = tested on: COLO 205 colon
[7] = tested on: HS 578T breast
[8] = tested on: NCI-H460 lung
[9] = tested on: SF-539 CNS
[10] = tested on: HT29 colon
[11] = tested on: OVCAR-8 ovarian
[12] = tested on: RXF 393 renal
[13] = tested on: NCI-H522 lung
[14] = tested on: PC-3 prostate
[15] = tested on: A549 NSCLC
[16] = tested on: HL-60(TB) leukemia
[17] = tested on: BT-549 breast
[18] = tested on: IGROV1 ovarian
[19] = tested on: SN12C renal
[20] = tested on: U251 CNS
[21] = tested on: ACHN renal
[22] = tested on: HOP-62 NSCLC
[23] = tested on: MCF7 breast
[24] = tested on: SW-620 colon
[25] = tested on: SR leukemia
[26] = tested on: OVCAR-3 ovarian
[27] = tested on: MOLT-4 leukemia
[28] = tested on: KM12 colon
[29] = tested on: MDA-MB-231 breast
[30] = tested on: T-47D breast
[31] = tested on: HCT-116 colon
[32] = tested on: SNB-19 CNS
[33] = tested on: SF-295 CNS
[34] = tested on: MDA-MB-435
[35] = tested on: HOP-92 NSCLC
[36] = tested on: CCRF-CEM leukemia
[37] = tested on: SK-MEL-5 melanoma
[38] = tested on: UACC-62 melanoma
[39] = tested on: M14 melanoma
[40] = tested on: HCT-15 colon
[41] = tested on: DU-145 prostate
[42] = tested on: SK-OV-3 ovarian
[43] = tested on: SF-268 CNS
[44] = tested on: TK-10 renal
[45] = tested on: OVCAR-5 ovarian
[46] = tested on: OVCAR-4 ovarian
[47] = tested on: K-562 leukemia
[48] = tested on: NCI/ADR-RES ovarian
[49] = tested on: RPMI-8226 leukemia
[50] = tested on: LOX IMVI melanoma
[51] = tested on: UO-31 renal
[52] = tested on: 786-0 renal
[53] = tested on: SNB-75 CNS
[54] = tested on: EKVX NSCLC
[55] = tested on: NCI-H226 lung
[56] = tested on: HCC-2998 colon

For `O=C(c1ccccc1)C(Cl)C(Cl)c1ccccc1` (configuration not stated), which GI50 [1] is on record?
Its GI50 is 13.6 µM.

What about the TGI [1] of the same compound?
The TGI was 27.1 µM.

What about the GI50 [2] of the same compound?
The GI50 was 2.47 µM.

What about the TGI [2] of the same compound?
Its TGI is 6.46 µM.

What about the GI50 [3] of the same compound?
The GI50 was 3.27 µM.

And the TGI [3]?
The TGI was 12.8 µM.

What about the GI50 [4] of the same compound?
Its GI50 is 2.53 µM.

What about the TGI [4] of the same compound?
The TGI was 8.18 µM.

And the GI50 [5]?
Its GI50 is 3.55 µM.

And the TGI [5]?
Its TGI is 9.33 µM.

And the GI50 [6]?
Its GI50 is 2.06 µM.

What about the TGI [6] of the same compound?
Its TGI is 4.26 µM.

And the GI50 [7]?
Its GI50 is 9.28 µM.

What about the TGI [7] of the same compound?
Its TGI is 45.3 µM.

What about the GI50 [8] of the same compound?
Its GI50 is 6.66 µM.

What about the TGI [8] of the same compound?
The TGI was 22.5 µM.

What about the GI50 [9] of the same compound?
The GI50 was 3.01 µM.

What about the TGI [9] of the same compound?
The TGI was 10.2 µM.

And the GI50 [10]?
Its GI50 is 2.05 µM.

What about the TGI [10] of the same compound?
Its TGI is 4.12 µM.

What about the GI50 [11] of the same compound?
The GI50 was 3.06 µM.

And the TGI [11]?
The TGI was 10.1 µM.

And the GI50 [12]?
The GI50 was 1.72 µM.

What about the TGI [12] of the same compound?
The TGI was 3.52 µM.

What about the GI50 [13] of the same compound?
The GI50 was 1.7 µM.

And the TGI [13]?
Its TGI is 3.42 µM.

What about the GI50 [14] of the same compound?
Its GI50 is 5.29 µM.

What about the TGI [14] of the same compound?
Its TGI is 15.8 µM.

What about the GI50 [15] of the same compound?
The GI50 was 18.3 µM.

What about the TGI [15] of the same compound?
The TGI was 34.2 µM.

What about the GI50 [16] of the same compound?
The GI50 was 3.04 µM.

And the TGI [16]?
Its TGI is 8.58 µM.

And the GI50 [17]?
The GI50 was 2.55 µM.

And the TGI [17]?
The TGI was 6.12 µM.

What about the GI50 [18] of the same compound?
Its GI50 is 3.45 µM.

What about the TGI [18] of the same compound?
The TGI was 11.4 µM.

What about the GI50 [19] of the same compound?
Its GI50 is 2.1 µM.

What about the TGI [19] of the same compound?
The TGI was 5.95 µM.

What about the GI50 [20] of the same compound?
The GI50 was 3.97 µM.

And the TGI [20]?
Its TGI is 14.3 µM.

What about the GI50 [21] of the same compound?
The GI50 was 2.21 µM.

What about the TGI [21] of the same compound?
The TGI was 5.23 µM.

And the GI50 [22]?
The GI50 was 7.61 µM.

And the TGI [22]?
Its TGI is 21.7 µM.

What about the GI50 [23] of the same compound?
Its GI50 is 1 µM.

And the TGI [23]?
The TGI was 10.3 µM.

And the GI50 [24]?
The GI50 was 1.41 µM.

And the TGI [24]?
The TGI was 3.36 µM.

What about the GI50 [25] of the same compound?
Its GI50 is 0.381 µM.

What about the TGI [25] of the same compound?
Its TGI is 7.65 µM.

And the GI50 [26]?
Its GI50 is 2.03 µM.

What about the TGI [26] of the same compound?
The TGI was 4.57 µM.

And the GI50 [27]?
The GI50 was 2.33 µM.

And the TGI [27]?
Its TGI is 6.25 µM.

And the GI50 [28]?
The GI50 was 3.76 µM.

And the TGI [28]?
The TGI was 15.1 µM.

And the GI50 [29]?
Its GI50 is 3.16 µM.

What about the TGI [29] of the same compound?
The TGI was 8.97 µM.

And the GI50 [30]?
The GI50 was 2.74 µM.

What about the TGI [30] of the same compound?
Its TGI is 11.3 µM.

What about the GI50 [31] of the same compound?
Its GI50 is 1.44 µM.

And the TGI [31]?
Its TGI is 2.95 µM.

What about the GI50 [32] of the same compound?
The GI50 was 6.85 µM.

And the TGI [32]?
Its TGI is 21.2 µM.

And the GI50 [33]?
The GI50 was 12.9 µM.

What about the TGI [33] of the same compound?
Its TGI is 26 µM.

What about the GI50 [34] of the same compound?
The GI50 was 2.26 µM.

What about the TGI [34] of the same compound?
Its TGI is 5.56 µM.

What about the GI50 [35] of the same compound?
The GI50 was 2.31 µM.

What about the TGI [35] of the same compound?
The TGI was 6.99 µM.

What about the GI50 [36] of the same compound?
The GI50 was 1.67 µM.

What about the TGI [36] of the same compound?
The TGI was 6.93 µM.

What about the GI50 [37] of the same compound?
Its GI50 is 2.93 µM.

What about the TGI [37] of the same compound?
The TGI was 10.7 µM.

What about the GI50 [38] of the same compound?
The GI50 was 1.69 µM.

And the TGI [38]?
The TGI was 3.69 µM.

What about the GI50 [39] of the same compound?
The GI50 was 2.12 µM.

What about the TGI [39] of the same compound?
The TGI was 4.79 µM.

And the GI50 [40]?
The GI50 was 2.12 µM.

And the TGI [40]?
The TGI was 9.03 µM.

And the GI50 [41]?
Its GI50 is 2.89 µM.

What about the TGI [41] of the same compound?
The TGI was 10.2 µM.

And the GI50 [42]?
Its GI50 is 16.8 µM.

What about the TGI [42] of the same compound?
The TGI was 30.5 µM.

And the GI50 [43]?
Its GI50 is 4.71 µM.

What about the TGI [43] of the same compound?
The TGI was 17.3 µM.

And the GI50 [44]?
The GI50 was 3.14 µM.

And the TGI [44]?
Its TGI is 9.12 µM.

And the GI50 [45]?
The GI50 was 5.48 µM.

What about the TGI [45] of the same compound?
The TGI was 20.9 µM.

And the GI50 [46]?
Its GI50 is 3.45 µM.

And the TGI [46]?
The TGI was 14.4 µM.

What about the GI50 [47] of the same compound?
Its GI50 is 2.6 µM.

What about the TGI [47] of the same compound?
The TGI was 10.3 µM.

And the GI50 [48]?
Its GI50 is 2.44 µM.

What about the TGI [48] of the same compound?
Its TGI is 7.35 µM.

And the GI50 [49]?
The GI50 was 2.27 µM.

And the TGI [49]?
The TGI was 7.08 µM.

And the GI50 [50]?
Its GI50 is 1.43 µM.

And the TGI [50]?
Its TGI is 2.82 µM.

And the GI50 [51]?
Its GI50 is 1.62 µM.

What about the TGI [51] of the same compound?
Its TGI is 3.45 µM.

What about the GI50 [52] of the same compound?
The GI50 was 1.79 µM.

What about the TGI [52] of the same compound?
Its TGI is 3.52 µM.

What about the GI50 [53] of the same compound?
The GI50 was 11.2 µM.

And the TGI [53]?
The TGI was 23.3 µM.

What about the GI50 [54] of the same compound?
Its GI50 is 5.24 µM.

And the TGI [54]?
Its TGI is 18.9 µM.

What about the GI50 [55] of the same compound?
The GI50 was 2.17 µM.

What about the TGI [55] of the same compound?
The TGI was 5.35 µM.

And the GI50 [56]?
The GI50 was 2 µM.

What about the TGI [56] of the same compound?
Its TGI is 3.56 µM.

Source: PubChem BioAssay (NCI)
